Active and inactive are the calls of the source.
Legend:
Type in all cases: functional
[1] = molecular target: Platelet-derived growth factor receptor alpha (Homo sapiens, UniProt P16234); experiment: Navigating the Kinome. Panel member name: PDGFRA
LIM domain kinase 1 = LIM domain kinase 1 (Homo sapiens, UniProt P53667); experiment: Navigating the Kinome. Panel member name: LIMK1
[2] = molecular target: Cyclin-dependent kinase 9 (Homo sapiens, UniProt P50750);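 further: value from the CDK9 entry of a kinome-spanning kinase panel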
[3] = molecular target: Dual specificity protein kinase CLK4 (Homo sapiens, UniProt Q9HAZ1)
[4] = molecular target: Tyrosine-protein kinase receptor TYRO3 (Homo sapiens, UniProt Q06418);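 further: TYRO3 value obtained as one member of a kinome-wide profiling panel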
[5] = molecular target: Tyrosine-protein kinase Fyn (Homo sapiens, UniProt P06241)
[6] = molecular target: Dual specificity tyrosine-phosphorylation-regulated kinase 1B (Homo sapiens, UniProt Q9Y463); experiment: Navigating the Kinome. Panel member name: DYRK1B
[7] = molecular target: Glycogen synthase kinase-3 beta (Homo sapiens, UniProt P49841);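 further: value comes from a broad kinome profiling panel, with GSK3B as the panel member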
[8] = molecular target: Dual specificity tyrosine-phosphorylation-regulated kinase 1A (Homo sapiens, UniProt Q13627);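 further: measured against DYRK1A as one member of a broad kinome profiling panel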
[9] = molecular target: Rho-associated protein kinase 1 (Homo sapiens, UniProt Q13464);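 further: measured within a broad kinome-wide panel profiling many kinases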
Chain of Rho-associated protein kinase 1 (Q13464 whole entry): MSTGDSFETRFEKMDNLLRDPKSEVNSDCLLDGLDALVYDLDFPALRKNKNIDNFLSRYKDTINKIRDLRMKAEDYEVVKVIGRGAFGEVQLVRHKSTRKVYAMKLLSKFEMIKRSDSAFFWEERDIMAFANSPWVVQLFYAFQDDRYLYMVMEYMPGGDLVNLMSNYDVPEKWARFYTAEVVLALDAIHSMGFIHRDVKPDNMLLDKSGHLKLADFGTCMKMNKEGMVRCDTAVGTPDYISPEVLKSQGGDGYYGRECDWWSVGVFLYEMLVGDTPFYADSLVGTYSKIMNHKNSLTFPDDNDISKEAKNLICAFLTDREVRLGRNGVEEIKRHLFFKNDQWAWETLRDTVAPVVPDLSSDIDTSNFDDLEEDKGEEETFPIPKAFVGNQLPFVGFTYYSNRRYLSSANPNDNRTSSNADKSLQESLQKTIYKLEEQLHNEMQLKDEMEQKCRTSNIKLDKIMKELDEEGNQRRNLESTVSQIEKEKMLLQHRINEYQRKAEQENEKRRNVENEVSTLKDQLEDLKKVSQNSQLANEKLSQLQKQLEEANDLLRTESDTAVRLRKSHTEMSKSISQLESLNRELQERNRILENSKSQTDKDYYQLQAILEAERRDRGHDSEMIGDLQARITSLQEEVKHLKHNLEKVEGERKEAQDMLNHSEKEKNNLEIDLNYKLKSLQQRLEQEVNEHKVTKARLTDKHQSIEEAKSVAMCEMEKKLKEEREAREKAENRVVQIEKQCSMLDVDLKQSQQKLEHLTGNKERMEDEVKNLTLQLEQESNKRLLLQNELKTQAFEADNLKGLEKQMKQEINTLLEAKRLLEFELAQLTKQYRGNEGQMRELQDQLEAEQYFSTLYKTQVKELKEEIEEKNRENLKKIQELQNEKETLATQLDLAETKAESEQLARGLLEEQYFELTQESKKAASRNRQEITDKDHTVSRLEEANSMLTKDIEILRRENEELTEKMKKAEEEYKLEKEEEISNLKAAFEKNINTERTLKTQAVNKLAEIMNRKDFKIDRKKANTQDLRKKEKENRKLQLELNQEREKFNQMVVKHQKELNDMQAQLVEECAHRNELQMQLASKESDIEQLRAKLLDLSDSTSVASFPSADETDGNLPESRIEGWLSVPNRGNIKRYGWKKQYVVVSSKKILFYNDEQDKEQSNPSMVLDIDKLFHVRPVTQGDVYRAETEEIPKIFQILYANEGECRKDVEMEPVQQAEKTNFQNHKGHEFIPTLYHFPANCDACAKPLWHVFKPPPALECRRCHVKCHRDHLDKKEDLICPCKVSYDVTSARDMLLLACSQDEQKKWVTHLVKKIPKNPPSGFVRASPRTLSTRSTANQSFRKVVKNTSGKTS

[10] = molecular target: Receptor-type tyrosine-protein kinase FLT3 (Homo sapiens, UniProt P36888);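 further: FLT3 was tested as one member of a kinome-wide kinase panel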
[11] = molecular target: Hepatocyte growth factor receptor (Homo sapiens, UniProt P08581);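 further: kinase panel profiling across the kinome, with MET as the panel member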
[12] = molecular target: Leucine-rich repeat serine/threonine-protein kinase 2 (Homo sapiens, UniProt Q5S007);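 further: value from a broad kinome-wide panel profiling study in which LRRK2 was one of the kinases tested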
[13] = molecular target: Leukocyte tyrosine kinase receptor (Homo sapiens, UniProt P29376); experiment: Navigating the Kinome. Panel member name: LTK
[14] = molecular target: cAMP-dependent protein kinase catalytic subunit alpha (Homo sapiens, UniProt P17612)
[15] = molecular target: Macrophage-stimulating protein receptor (Homo sapiens, UniProt Q04912); experiment: Navigating the Kinome. Panel member name: MST1R
[16] = molecular target: Mitogen-activated protein kinase 8 (Homo sapiens, UniProt P45983);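 further: value comes from one member of a kinome-wide kinase profiling panel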
Chain of Mitogen-activated protein kinase 8 (P45983 whole entry): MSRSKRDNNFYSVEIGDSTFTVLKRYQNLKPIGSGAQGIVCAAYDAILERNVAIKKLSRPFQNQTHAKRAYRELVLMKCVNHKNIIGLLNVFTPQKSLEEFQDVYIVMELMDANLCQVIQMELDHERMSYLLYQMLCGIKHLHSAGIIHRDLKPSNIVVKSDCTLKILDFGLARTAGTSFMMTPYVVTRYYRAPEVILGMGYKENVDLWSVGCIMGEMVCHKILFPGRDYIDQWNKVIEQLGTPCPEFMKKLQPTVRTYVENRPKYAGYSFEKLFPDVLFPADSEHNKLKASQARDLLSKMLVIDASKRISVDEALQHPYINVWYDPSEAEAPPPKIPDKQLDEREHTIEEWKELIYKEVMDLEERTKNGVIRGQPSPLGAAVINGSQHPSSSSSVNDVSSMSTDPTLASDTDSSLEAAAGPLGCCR

[17] = molecular target: Cyclin-dependent kinase 7 (Homo sapiens, UniProt P50613);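 further: value comes from a kinome-wide kinase profiling panel in which CDK7 is one member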
[18] = molecular target: Protein kinase C theta type (Homo sapiens, UniProt Q04759); experiment: Navigating the Kinome. Panel member name: PRKCQ
[19] = molecular target: Macrophage colony-stimulating factor 1 receptor (Homo sapiens, UniProt P07333);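 further: value comes from the Navigating the Kinome screening panel, CSF1R member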
Aurora kinase A = molecular target: T1, Aurora kinase A (Homo sapiens, UniProt O14965);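 further: value from the Navigating the Kinome kinase panel profiling, panel entry STK6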
T1 sequence (O14965 whole entry): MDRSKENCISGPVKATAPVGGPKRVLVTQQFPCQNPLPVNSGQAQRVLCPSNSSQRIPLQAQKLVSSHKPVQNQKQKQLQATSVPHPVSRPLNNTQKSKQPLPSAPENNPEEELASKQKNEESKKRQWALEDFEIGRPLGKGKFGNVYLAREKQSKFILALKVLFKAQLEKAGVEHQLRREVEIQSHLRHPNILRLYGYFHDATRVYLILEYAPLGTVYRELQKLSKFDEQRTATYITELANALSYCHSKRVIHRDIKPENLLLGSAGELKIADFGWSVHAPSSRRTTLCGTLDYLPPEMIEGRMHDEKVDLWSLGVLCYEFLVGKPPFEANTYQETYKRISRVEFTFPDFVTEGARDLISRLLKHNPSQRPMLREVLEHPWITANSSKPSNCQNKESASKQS

[20] = molecular target: Fibroblast growth factor receptor 1 (Homo sapiens, UniProt P11362)
[21] = molecular target: Serine/threonine-protein kinase Chk1 (Homo sapiens, UniProt O14757);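 further: measured as one member of a kinome-wide kinase profiling panel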
[22] = molecular target: Tyrosine-protein kinase ABL1 (Homo sapiens, UniProt P00519)
[23] = molecular target: ALK tyrosine kinase receptor (Homo sapiens, UniProt Q9UM73);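 further: ALK tested as one member of a kinase panel screen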
[24] = molecular target: Dual specificity mitogen-activated protein kinase kinase 1 (Homo sapiens, UniProt Q02750); experiment: Navigating the Kinome. Panel member name: MAP2K1
[25] = molecular target: Cyclin-dependent kinase 5 (Homo sapiens, UniProt Q00535);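 further: CDK5 measured as one member of a kinase profiling panel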
[26] = molecular target: Cyclin-dependent kinase 8 (Homo sapiens, UniProt P49336); experiment: Navigating the Kinome. Panel member name: CDK8
Chain of Cyclin-dependent kinase 8 (P49336 whole entry): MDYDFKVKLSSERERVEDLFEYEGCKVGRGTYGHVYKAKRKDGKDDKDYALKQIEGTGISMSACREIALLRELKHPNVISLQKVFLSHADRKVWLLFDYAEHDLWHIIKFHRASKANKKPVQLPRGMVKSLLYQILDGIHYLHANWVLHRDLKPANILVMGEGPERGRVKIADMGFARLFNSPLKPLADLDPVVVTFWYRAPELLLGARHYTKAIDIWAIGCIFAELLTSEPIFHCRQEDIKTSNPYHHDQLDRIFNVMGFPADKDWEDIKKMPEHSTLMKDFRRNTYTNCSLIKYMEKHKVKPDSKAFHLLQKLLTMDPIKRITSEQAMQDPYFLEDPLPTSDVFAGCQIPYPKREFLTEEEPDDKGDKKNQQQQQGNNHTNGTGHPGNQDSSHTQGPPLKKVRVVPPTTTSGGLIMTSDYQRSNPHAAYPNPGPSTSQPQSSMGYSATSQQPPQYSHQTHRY

[27] = molecular target: Serine/threonine-protein kinase pim-1 (Homo sapiens, UniProt P11309)
[28] = molecular target: Tyrosine-protein kinase Lck (Homo sapiens, UniProt P06239);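 further: lck was assayed as one member of a kinase panel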
Activin receptor type-1 = Activin receptor type-1 (Homo sapiens, UniProt Q04771); experiment: Navigating the Kinome. Panel member name: ACVR1
Chain of Activin receptor type-1 (Q04771 whole entry): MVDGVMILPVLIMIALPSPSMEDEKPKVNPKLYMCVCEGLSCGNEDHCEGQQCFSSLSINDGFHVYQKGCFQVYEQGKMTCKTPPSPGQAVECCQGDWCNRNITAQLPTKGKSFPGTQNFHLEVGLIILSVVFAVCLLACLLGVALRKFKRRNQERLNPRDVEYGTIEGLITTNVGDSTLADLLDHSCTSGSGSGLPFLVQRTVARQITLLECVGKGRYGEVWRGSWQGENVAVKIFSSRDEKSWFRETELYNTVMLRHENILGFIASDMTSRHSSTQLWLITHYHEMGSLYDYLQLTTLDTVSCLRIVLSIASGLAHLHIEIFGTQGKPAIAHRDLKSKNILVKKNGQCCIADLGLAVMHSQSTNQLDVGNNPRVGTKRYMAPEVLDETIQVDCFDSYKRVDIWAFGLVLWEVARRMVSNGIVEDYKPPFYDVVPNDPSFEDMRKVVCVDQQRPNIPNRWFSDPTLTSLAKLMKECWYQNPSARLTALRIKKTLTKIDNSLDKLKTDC

[29] = molecular target: Mitogen-activated protein kinase kinase kinase kinase 2 (Homo sapiens, UniProt Q12851);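 further: measured as one member of a kinome-wide kinase panel, with MAP4K2 as the panel entry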
Chain of Mitogen-activated protein kinase kinase kinase kinase 2 (Q12851 whole entry): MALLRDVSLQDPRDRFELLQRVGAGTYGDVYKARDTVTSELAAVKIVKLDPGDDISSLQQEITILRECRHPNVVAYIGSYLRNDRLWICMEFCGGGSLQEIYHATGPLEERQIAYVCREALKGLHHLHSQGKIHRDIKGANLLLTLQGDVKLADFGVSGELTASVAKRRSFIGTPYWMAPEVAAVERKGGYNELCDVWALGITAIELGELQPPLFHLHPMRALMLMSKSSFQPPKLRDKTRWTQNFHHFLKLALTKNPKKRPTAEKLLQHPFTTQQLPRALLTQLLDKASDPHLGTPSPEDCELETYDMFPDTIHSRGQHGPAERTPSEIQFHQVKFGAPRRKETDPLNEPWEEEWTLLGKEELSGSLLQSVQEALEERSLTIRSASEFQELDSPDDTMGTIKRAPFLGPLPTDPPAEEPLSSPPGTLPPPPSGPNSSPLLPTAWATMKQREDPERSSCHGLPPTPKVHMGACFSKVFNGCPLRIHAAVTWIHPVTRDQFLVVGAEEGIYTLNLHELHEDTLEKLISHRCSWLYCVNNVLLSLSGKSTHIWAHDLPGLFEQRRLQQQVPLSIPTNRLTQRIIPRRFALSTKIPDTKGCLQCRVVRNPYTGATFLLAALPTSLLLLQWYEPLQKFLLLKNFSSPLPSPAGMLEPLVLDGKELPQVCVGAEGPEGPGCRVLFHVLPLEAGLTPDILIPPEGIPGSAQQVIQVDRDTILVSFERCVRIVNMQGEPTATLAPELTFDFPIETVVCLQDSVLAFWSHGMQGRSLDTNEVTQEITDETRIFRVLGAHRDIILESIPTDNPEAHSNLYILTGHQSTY

[30] = molecular target: Mitogen-activated protein kinase kinase kinase kinase 4 (Homo sapiens, UniProt O95819)
[31] = molecular target: Casein kinase I isoform alpha (Homo sapiens, UniProt P48729)
Aurora kinase B = Aurora kinase B (Homo sapiens, UniProt Q96GD4)
[32] = molecular target: Vascular endothelial growth factor receptor 2 (Homo sapiens, UniProt P35968)
Chain of Vascular endothelial growth factor receptor 2 (P35968 whole entry): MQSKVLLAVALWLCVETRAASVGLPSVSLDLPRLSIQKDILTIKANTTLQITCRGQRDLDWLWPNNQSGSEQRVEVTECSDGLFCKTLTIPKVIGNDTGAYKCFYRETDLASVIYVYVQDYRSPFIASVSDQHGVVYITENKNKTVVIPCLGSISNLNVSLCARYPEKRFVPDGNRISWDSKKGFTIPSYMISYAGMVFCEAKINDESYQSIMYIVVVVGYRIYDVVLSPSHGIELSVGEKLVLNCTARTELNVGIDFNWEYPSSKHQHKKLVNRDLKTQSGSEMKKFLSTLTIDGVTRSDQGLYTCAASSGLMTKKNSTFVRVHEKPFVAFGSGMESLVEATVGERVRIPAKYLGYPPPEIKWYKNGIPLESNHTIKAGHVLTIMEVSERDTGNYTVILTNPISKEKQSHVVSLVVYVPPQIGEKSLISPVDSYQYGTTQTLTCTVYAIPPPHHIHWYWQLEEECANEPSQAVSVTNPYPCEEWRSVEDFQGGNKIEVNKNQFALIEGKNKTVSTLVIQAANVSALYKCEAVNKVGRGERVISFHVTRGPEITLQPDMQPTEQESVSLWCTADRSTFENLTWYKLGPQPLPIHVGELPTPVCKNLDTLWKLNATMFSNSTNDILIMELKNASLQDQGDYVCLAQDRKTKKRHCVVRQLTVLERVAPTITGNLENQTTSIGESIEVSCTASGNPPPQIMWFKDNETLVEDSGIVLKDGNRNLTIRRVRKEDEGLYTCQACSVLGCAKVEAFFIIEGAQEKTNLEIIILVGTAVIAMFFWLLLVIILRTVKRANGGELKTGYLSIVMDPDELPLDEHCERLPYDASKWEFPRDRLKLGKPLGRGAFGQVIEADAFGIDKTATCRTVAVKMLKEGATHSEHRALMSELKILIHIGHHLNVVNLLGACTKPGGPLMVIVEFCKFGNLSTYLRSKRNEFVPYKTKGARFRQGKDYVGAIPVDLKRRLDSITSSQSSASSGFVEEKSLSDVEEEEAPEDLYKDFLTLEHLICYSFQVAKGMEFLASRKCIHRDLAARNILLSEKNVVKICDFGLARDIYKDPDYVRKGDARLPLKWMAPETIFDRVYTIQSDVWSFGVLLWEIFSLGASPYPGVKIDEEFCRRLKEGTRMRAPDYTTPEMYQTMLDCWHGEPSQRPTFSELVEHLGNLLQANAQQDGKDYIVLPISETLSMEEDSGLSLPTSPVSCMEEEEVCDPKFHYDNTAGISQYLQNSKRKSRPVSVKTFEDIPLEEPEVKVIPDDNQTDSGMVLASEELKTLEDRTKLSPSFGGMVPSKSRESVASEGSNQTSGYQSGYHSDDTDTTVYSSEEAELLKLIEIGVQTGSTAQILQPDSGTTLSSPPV

Cc1cccc(-c2cccc3onc(N)c23)c1
Ki [1]: 15.8 µM (active) | Ki (LIM domain kinase 1): 20 µM (active) | Ki [2]: 39.8 µM (active) | Ki [3]: 5.01 µM (active) | Ki [4]: 31.6 µM (active) | Ki [5]: 79.4 µM (active) | Ki [6]: 10 µM (active) | Ki [7]: 39.8 µM (active) | Ki [8]: 12.6 µM (active) | Ki [9]: 10 µM (active) | Ki [10]: 63.1 µM (active) | Ki [11]: 31.6 µM (active) | Ki [12]: 15.8 µM (active) | Ki [13]: 7.94 µM (active) | Ki [14]: 10 µM (active) | Ki [15]: 50.1 µM (active) | Ki [16]: 39.8 µM (active) | Ki [17]: 50.1 µM (active) | Ki [18]: > 100 µM (inactive) | Ki [19]: 15.8 µM (active) | Ki (Aurora kinase A): > 63.1 µM (inactive) | Ki [20]: 79.4 µM (active) | Ki [21]: 39.8 µM (active) | Ki [22]: 25.1 µM (active) | Ki [23]: 100 µM (active) | Ki [24]: 2 µM (active) | Ki [25]: 5.01 µM (active) | Ki [26]: 3.16 µM (active) | Ki [27]: 5.01 µM (active) | Ki [28]: 100 µM (active) | Ki (Activin receptor type-1): 3.16 µM (active) | Ki [29]: 3.16 µM (active) | Ki [30]: 10 µM (active) | Ki [31]: 25.1 µM (active) | Ki (Aurora kinase B): 6.31 µM (active) | Ki [32]: 100 µM (active)

— ChEMBL document CHEMBL1201862, “PubChem BioAssay data set” (2004)
